Assay results taken from US20240109918A1, “HETEROCYCLIC COMPOUNDS AND USES THEREOF” (Kumquat Biosciences Inc., priority 2022, published 2024).

Legend:
[1] = target: T1, KRASG12D (Homo sapiens, UniProt P01116, G12D); assay: Bio-Biochem-PPI-HTRF Ras-SOS1 interaction assay (KRAS G12D); type: biochemical; conditions: 5 nM
T1 construct: made in house; host or cells: E. coli BL21 (DE3)
Summary of the method: (§1)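 HTRF measurement of GST-K-Ras (wt or G12D) binding to His-hSOS1, via anti-GST-Eu(K) donor and anti-6His-XL665 acceptor, in HEPES pH 7.4 buffer with NaCl, DTT, BSA and Igepal. Read after ≥10 min; compounds in duplicate from 10 μM down to 0.01 μM. IC50 from 665/620 nm ratio.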

[2] = target: T2, KRASwt (Homo sapiens, UniProt P01116); assay: Bio-Biochem-PPI-HTRF Ras-SOS1 interaction assay (KRAS wt); type: biochemical; conditions: 5 nM
T2 construct: made in house; host or cells: E. coli BL21 (DE3)
Summary of the method: as §1

T1 sequence (P01116 1-188 isoform P01116-2 G12D): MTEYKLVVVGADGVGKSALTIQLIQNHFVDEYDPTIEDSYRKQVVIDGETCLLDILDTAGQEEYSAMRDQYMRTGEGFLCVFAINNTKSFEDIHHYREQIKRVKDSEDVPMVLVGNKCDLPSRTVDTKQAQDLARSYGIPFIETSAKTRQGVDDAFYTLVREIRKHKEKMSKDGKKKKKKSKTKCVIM
T2 sequence (P01116 1-188 isoform P01116-2): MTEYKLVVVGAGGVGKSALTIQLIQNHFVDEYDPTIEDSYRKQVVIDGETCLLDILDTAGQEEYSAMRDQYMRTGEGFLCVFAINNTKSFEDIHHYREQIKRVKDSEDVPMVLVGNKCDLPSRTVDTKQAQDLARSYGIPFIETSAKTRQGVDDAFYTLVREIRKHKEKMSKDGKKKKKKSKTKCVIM

Row | IC50 [1] [µM] | IC50 [2] [µM] | SMILES
1 | < 5 | < 5 | C[C@H]1CN(C(=O)N2CC3(CCCCN(c4nc(OC[C@@]56CCCN5C[C@H](F)C6)nc5c(F)c(-c6ccc(F)c7sc(N)c(C#N)c67)c(Cl)cc45)C3)C2)CCO1 [compound 285, 2-amino-4-(6-chloro-8-fluoro-2-(((2R,7aS)-2-fluorotetrahydro-1H-pyrrolizin-7a(5H)-yl)methoxy)-4-(2-((S)-2-methylmorpholine-4-carbonyl)-2,6-diazaspiro[3.6]decan-6-yl)quinazolin-7-yl)-7-fluorobenzo[b]thiophene-3-carbonitrile]
2 | < 5 | < 5 | N#Cc1c(N)sc2c(F)ccc(-c3c(Cl)cc4c(N5CCOC6(CN(C#N)C6)C5)nc(OC[C@@]56CCCN5C[C@H](F)C6)nc4c3F)c12 [compound 190, 8-(7-(2-amino-3-cyano-7-fluorobenzo[b]thiophen-4-yl)-6-chloro-8-fluoro-2-(((2R,7aS)-2-fluorotetrahydro-1H-pyrrolizin-7a(5H)-yl)methoxy)quinazolin-4-yl)-5-oxa-2,8-diazaspiro[3.5]nonane-2-carbonitrile]
3 | < 5 | < 5 | N#Cc1c(N)sc2c(F)ccc(-c3c(Cl)cc4c(N5CCOCC6(CN(C(=O)C(F)Cl)C6)C5)nc(OC[C@@]56CCCN5C[C@H](F)C6)nc4c3F)c12 (stereo partly drawn) [compound 283, 2-amino-4-(6-chloro-4-(2-(2-chloro-2-fluoroacetyl)-6-oxa-2,9-diazaspiro[3.6]decan-9-yl)-8-fluoro-2-(((2R,7aS)-2-fluorotetrahydro-1H-pyrrolizin-7a(5H)-yl)methoxy)quinazolin-7-yl)-7-fluorobenzo[b]thiophene-3-carbonitrile]
4 | < 5 | < 5 | N#Cc1c(N)sc2c(F)ccc(-c3c(Cl)cc4c(N5CCC6(CCN(C(=O)C7CC7(F)F)C6)CC5)nc(OC[C@@]56CCCN5C[C@H](F)C6)nc4c3F)c12 (stereo partly drawn) [compound 349, 2-amino-4-(6-chloro-4-(2-(2,2-difluorocyclopropane-1-carbonyl)-2,8-diazaspiro[4.5]decan-8-yl)-8-fluoro-2-(((2R,7aS)-2-fluorotetrahydro-1H-pyrrolizin-7a(5H)-yl)methoxy)quinazolin-7-yl)-7-fluorobenzo[b]thiophene-3-carbonitrile]
5 | < 5 | < 5 | C#Cc1c(F)ccc2cc(O)cc(-c3ncc4c(N5CCCCC6(CN(C(=O)[C@H]7CC7(F)F)C6)C5)nc(OC[C@@]56CCCN5C[C@H](F)C6)nc4c3F)c12 [compound 215, ((R)-2,2-difluorocyclopropyl) (6-(7-(8-ethynyl-7-fluoro-3-hydroxynaphthalen-1-yl)-8-fluoro-2-(((2R,7aS)-2-fluorotetrahydro-1H-pyrrolizin-7a(5H)-yl)methoxy)pyrido[4,3-d]pyrimidin-4-yl)-2,6-diazaspiro[3.6]decan-2-yl)methanone]

Row | SMILES | IC50 [1] [µM] | IC50 [2] [µM]
6 | Nc1nc2c(-c3c(Cl)cc4c(N5CCC6(CC5)CN(S(=O)(=O)F)C6)nc(OC[C@@]56CCCN5C[C@H](F)C6)nc4c3F)ccc(F)c2s1 [compound 191, 7-(7-(2-amino-7-fluorobenzo[d]thiazol-4-yl)-6-chloro-8-fluoro-2-(((2R,7aS)-2-fluorotetrahydro-1H-pyrrolizin-7a(5H)-yl)methoxy)quinazolin-4-yl)-2,7-diazaspiro[3.5]nonane-2-sulfonyl fluoride] | ≥ 5 | < 5
